Target: T1, TLR⅞ (Mus musculus, UniProt P58681)
T1 sequence (P58681 27-1050): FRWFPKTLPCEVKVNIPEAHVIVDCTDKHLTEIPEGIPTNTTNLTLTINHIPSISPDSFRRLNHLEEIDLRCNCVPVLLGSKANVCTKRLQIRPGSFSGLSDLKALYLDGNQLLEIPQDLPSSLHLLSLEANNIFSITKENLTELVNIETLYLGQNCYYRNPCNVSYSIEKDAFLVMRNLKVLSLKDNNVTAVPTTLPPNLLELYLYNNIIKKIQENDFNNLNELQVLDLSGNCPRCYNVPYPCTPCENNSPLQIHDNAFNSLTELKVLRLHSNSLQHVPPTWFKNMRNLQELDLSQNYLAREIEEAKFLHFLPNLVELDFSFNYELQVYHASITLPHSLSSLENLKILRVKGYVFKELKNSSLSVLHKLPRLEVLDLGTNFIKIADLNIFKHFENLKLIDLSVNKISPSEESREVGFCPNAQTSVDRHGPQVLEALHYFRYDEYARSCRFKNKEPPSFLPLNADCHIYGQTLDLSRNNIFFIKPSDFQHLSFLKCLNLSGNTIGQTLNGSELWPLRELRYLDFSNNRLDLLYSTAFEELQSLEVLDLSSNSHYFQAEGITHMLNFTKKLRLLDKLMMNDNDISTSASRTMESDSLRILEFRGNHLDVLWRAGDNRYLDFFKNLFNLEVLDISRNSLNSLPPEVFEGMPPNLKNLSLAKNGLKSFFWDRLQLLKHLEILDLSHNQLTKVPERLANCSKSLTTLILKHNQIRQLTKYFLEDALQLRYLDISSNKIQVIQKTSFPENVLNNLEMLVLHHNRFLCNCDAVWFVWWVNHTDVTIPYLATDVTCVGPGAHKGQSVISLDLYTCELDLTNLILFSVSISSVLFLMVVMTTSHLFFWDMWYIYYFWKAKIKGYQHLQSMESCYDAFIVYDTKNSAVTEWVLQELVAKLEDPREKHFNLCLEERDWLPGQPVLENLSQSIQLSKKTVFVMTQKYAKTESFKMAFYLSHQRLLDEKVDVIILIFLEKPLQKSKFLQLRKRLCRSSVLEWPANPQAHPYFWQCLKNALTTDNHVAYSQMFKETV
Experiment: Mouse spleenocytes cell assay with R848 stimulation (IL6/TNFa ELISA)
Assay type: cell-based
Details: R848 1 µM
Method: Mouse spleen from healthy, female C57BL-6/N mice (n=2) were taken out in 50 mL tubes with B-Cell medium and the experiment started directly. The spleen was grinded through a cell strainer by using the punch of a syringe into a 50 mL Falcon tube. Cell strainer and punch were flushed with appropriate amount of washing buffer to avoid cellloss. Then the spleenocytes were centrifuged for 10 min at 552 xg (1600 rpm), 4° C. The erythrocytes within the cell pellet were lysed by resuspending pellet in 1 ml ACK-lysing buffer (4° C.) and incubate for 1 minute at RT. Lysis was stopped by filling up to 50 ml with washing buffer and centrifuged for 10 min at 552 xg (1600 rpm), 4° C. Cells were washed in B-cell Media (IMDM + 25 mM HEPES + 10%FCS + pen/strep + NEAA 10 nM + Sodium Pyrovat 100 nM, β-Mercaptoethanol 50 nM), counted and seeded in a density of 148500 cells per well in a 96 well MTP (135µl of 1,1×106c/ml). The cells were pre-treated with antimalarials (15 µL, in different concentrations according to dose-response curve ranging from 100 pM-50 µM)) for 30 min, at 37° C., 5% CO2, followed by TLR⅞ stimulation with R848 (15 µl, final concentration of 1 µM) or a TLR9 stimulation with CpG (15 µl, final concentration of 5 µM) and incubated at 37° C., 5% CO2 for 18 - 24 hours.
Supernatants were collected and transferred into a 96 well round bottom MTP and stored at -20° C. until ELISA formouse IL6 and mouse TNFa were performed. Plates were read directly after assay on an Envision Multiplate reader. Results were analyzed with GraphPadPrism V8.0. Plot the calculated amount of produced IL6 or TNFa in pg/ml on y-axis and the concentration of each MSC concentration at half logarhythmic scaling on the x-axis to achieve a dose-response curve. Determine IC50 values using Graph Pad Prism analysis software (Transform Y values using “X=Log(X) and log inhibitor vs. response; Variable slope (four parameters).

In the case of `CCN(CCO)CCCC(C)Nc1ccnc2cc(Cl)ccc12` (stereo not drawn) [HYDROXY-CHLOROQUINE HCQ, hydroxychloroquine], the “IC50 TLR⅞ (IL6 readout) mouse spleenocytes (n=2)” value (IL6 readout) is reported as “no suppr”, the IC50 (IL6 readout, read-out: IC50 TLR⅞ (IL6 readout) mouse spleenocytes (n=2)) is reported as 27.1 µM and the “IC50 TLR⅞ (TNF readout) mouse spleenocytes (n=2)” value (TNF readout) is reported as “no suppr”.

From patent US20230301981A1, “TLR7/8 ANTAGONISTS AND USES THEREOF” (Merck Patent GmbH, priority 2020, published 2023)
